# Assay results reported in the Bradley open melting point set (2014).
row,melting point [°C],Structure (SMILES)
1,-30,CCCCCCCCCC [N-decane]
2,-10,CCCCCCCCCCCC [N-dodecane]
3,45,CCN1C(=O)C=CC1=O [N-ethylmaleimide]
4,120,ON(/C=C/c1ccccc1)c1ccccc1 [N-hydroxy-N-[(E)-2-phenylethenyl]aniline]
5,-32,CC(C)Nc1ccccc1 [N-isopropylaniline]
6,130,CNC[C@H](O)[C@@H](O)[C@H](O)[C@H](O)CO [N-methyl-D-glucamine]
7,28,CCCCCCCCCCCCCCCCCC [N-octadecane]
8,-100,CCCCCOC(C)=O [N-pentyl acetate]
9,-58,CCCCCC1CCCCC1 [N-pentylcyclohexane]
10,103,CC(=O)N(Nc1ccccc1/N=N/c1ccccc1)c1ccccc1 [N-phenyl-N'-{2-[(E)-phenyldiazenyl]phenyl}acetohydrazide]
11,74,Nc1ccc(Nc2ccccc2)cc1 [N-phenyl-p-phenylenediamine]
12,-92,CCCOC(C)=O [N-propyl acetate]
13,-100,CCCc1ccccc1 [N-propylbenzene]
14,102,CCCNC(N)=O [N-propylurea]
15,106,CCCCCCCCCCCCCC(N)=O [N-tetradecanamide]
16,6,CCCCCCCCCCCCCC [N-tetradecane]
17,9,CCCCCCCCCCCCCCc1ccccc1 [N-tetradecylbenzene]
18,-5,CCCCCCCCCCCCC [N-tridecane]
19,-26,CCCCCCCCCCC [N-undecane]
20,98,O=C(Nc1ccccc1/C=C/c1ccccc1)c1ccccc1 [N-{2-[(E)-2-phenylethenyl]phenyl}benzamide]
21,130,CC(C)(C)NCC(O)COc1cccc2c1C[C@H](O)[C@H](O)C2 (some centres not stated) [Nadolol]

row,melting point [°C],Structure (SMILES)
1,77,c1ccc2ccccc2c1 [Naphthalene]
2,61,COc1ccc2cc(C(C)COC(C)=O)ccc2c1 (configuration not stated) [Naproxol acetate]
3,268,O=C1CN(/N=C/c2ccc([N+](=O)[O-])o2)C(=O)N1 [Nitrofurantoin]
4,180,CN1Cc2c(N)cccc2C(c2ccccc2)C1 (configuration not stated) [Nomifensine]
5,66,CCCCCCCCCCCCCCCCCCCCCCCCCCCCC [Nonacosane]
6,45.5,Cc1ccc(-n2c(C)ccc2C)cc1 [OSM-S-26]
7,110,Cc1ccc(-n2c(C)cc(C=O)c2C)cc1 [OSM-S-29]
8,67.5,CCOC(=O)c1cc(C)n(-c2ccc(C(F)(F)F)cc2)c1C [OSM-S-32]
9,86,Cc1cc(C=O)c(C)n1-c1ccc(C(F)(F)F)cc1 [OSM-S-34]
10,60.5,CCOC(=O)c1ccc(-n2c(C)ccc2C)cc1 [OSM-S-40]
11,182,Cc1cc(/C=C2\SC(N(CC#N)c3ccccc3)=NC2=O)c(C)n1-c1ccc(C(F)(F)F)cc1 [OSM-S-42]
12,62.5,Cc1cc(C=O)c(C)n1-c1ccccn1 [OSM-S-44]
13,238,CC(=O)N(C1=NC(=O)/C(=C/c2cc(C)n(-c3ccccc3)c2C)S1)c1ccccc1 [OSM-S-49]
14,154,Cc1c(C(=O)OCC(N)=O)cnn1-c1ccccc1 [OSM-S-57]
15,56,CCCCCCCCCCCCCCCCCCN [Octadecan-1-amine]
16,100,CC(C)NCC(O)c1cc(O)cc(O)c1 (configuration not stated) [Orciprenaline]
17,346,O=C(O)c1cc(=O)[nH]c(=O)[nH]1 [Orotic Acid]
18,158,O=C(O)CCc1nc(-c2ccccc2)c(-c2ccccc2)o1 [Oxaprozin]
19,198,CC(C)(S)[C@@H](N)C(=O)O [Penicillamine]
20,-50,CCCC(C)O (configuration not stated) [Pentan-2-ol]
21,-78,CCCC(C)=O [Pentan-2-one]

row,melting point [°C],Structure (SMILES)
1,-91.5,CCCCC=O [Pentanal]
2,135,CCOc1ccc(NC(C)=O)cc1 [Phenacetin]
3,100,c1ccc2c(c1)ccc1ccccc12 [Phenanthrene]
4,158,c1ccc2nc3ccccc3nc2c1 [Phenazine]
5,101,CCOc1ccc(NC(=O)CN)cc1 [Phenokoll]
6,57,O=C(c1ccccc1)c1cccs1 [Phenyl(2-thienyl)methanone]
7,107,CCCCC1C(=O)N(c2ccccc2)N(c2ccccc2)C1=O [Phenylbutazone]
8,-15,OCc1ccccc1 [Phenylmethanol]
9,286,O=C1NC(=O)C(c2ccccc2)(c2ccccc2)N1 [Phenytoin]
10,199,O=C2c1ccccc1S(=O)(=O)N(C)C/2=C(O)Nc3ccccn3 [Piroxicam]
11,326,CC[C@H](C)C(=O)O[C@H]1C[C@H](O)C=C2C=C[C@H](C)[C@H](CC[C@@H](O)C[C@@H](O)CC(=O)O)[C@H]21 [Pravastatin]
12,136,O=C(C1CCCCC1)N1CC(=O)N2CCc3ccccc3C2C1 (configuration not stated) [Praziquantel]
13,234,C[C@]12C=CC(=O)C=C1CC[C@@H]1[C@@H]2C(=O)C[C@@]2(C)[C@H]1CC[C@]2(O)C(=O)CO [Prednisone]
14,282,CCC1(c2ccccc2)C(=O)NCNC1=O [Primidone]
15,129,Clc1ccc(NC(/N)=NC(N)=NC(C)C)cc1 [Proguanil]
16,3,"CC(=O)OCC(COC(C)=O)OC(C)=O [Propane-1,2,3-triyl triacetate]"
17,82,N#Cc1ccc2c(c1)N(CCCN1CCC(O)CC1)c1ccccc1S2 [Propericiazine (JAN)]
18,164,CC(C)NCC(O)COc1cccc2ccccc12 (configuration not stated) [Propranolol]
19,-99,CCCc1ccccc1 [Propylbenzene]
20,-60,CC(O)CO (configuration not stated) [Propylene glycol]
21,172,Cc1ncc(CO)c(C=O)c1O [Pyridoxal]

row,Structure (SMILES),melting point [°C]
1,CCCCCCP(=O)(O)O [N-hexylphosphonic acid],109
2,CN(CCO)CCO [N-methyldiethanolamine],-21
3,O=[N+]([O-])OCC(CO[N+](=O)[O-])O[N+](=O)[O-] [Nitroglycerin],13.5
4,O=C(O)C(F)(F)C(F)(F)C(F)(F)C(F)(F)C(F)(F)C(F)(F)C(F)(F)C(F)(F)C(F)(F)F [Nonadecafluorodecanoic acid],78
5,"CCOP(=S)(OCC)Oc1nc(Cl)c(Cl)cc1Cl [O,O-Diethyl O-(3,5,6-trichloropyridin-2-yl) phosphorothioate]",42.5
6,"COP(=S)(OC)Oc1ccc([N+](=O)[O-])cc1 [O,O-Dimethyl O-(4-nitrophenyl) phosphorothioate]",36
7,Clc1ccc(-c2ccc(Cl)cc2)cc1 [PCB-15],149
8,Oc1c(Cl)c(Cl)c(Cl)c(Cl)c1Cl [Pentachlorophenol],190
9,Oc1c(F)c(F)c(F)c(F)c1F [Pentafluorophenol],35
10,"O=C1C(=O)c2ccccc2-c2ccccc21 [Phenanthrene-9,10-dione]",210
11,CCC1(c2ccccc2)C(=O)NC(=O)NC1=O [Phenobarbital],174
12,C=CCO [Prop-2-en-1-ol],-129
13,CCC(=O)OC(=O)CC [Propanoic anhydride],-45
14,CCC#N [Propiononitrile],-92
